{"source": "patent US9801844B2", "about": "“Methods and compositions for the treatment of cancer” (priority 2012, dated 2017)", "key": {"[1]": {"system": "SKOV3 (Her2 overexpressing) human ovarian cancer cells", "assay": "MTT cell proliferation assay on SKOV3 cells", "assay_type": "cell-based", "conditions": "SKOV3, 96 h", "method": "SKOV3 (Her2 overexpressing) ovarian cancer cells (ATCC, Manassas, Va.), were grown in McCoy's media (Gibco BRL Life Technologies, Inc., Rockville, Md.) containing 10% (v/v) fetal bovine serum (FBS) (Gibco BRL) at 37° C., 5% C02, plus Penn-Strep (Sigma).\nThe MTT [3-(4,5-dimethyl-2-thiazol)-2,5-diphenyl-2H tetrazolilum bromide] (Dojindo; Tokyo, Japan) cell proliferation assay system (Roche Diagnostic, Mannheim, Germany) was used to determine the sensitivity of the cell lines to agents. Cells were seeded at 1×10^4 cells/well in 96-well plates and allowed to attach for 24 h. The medium was replaced with fresh medium containing DMSO or compound. The cells were treated for 96 h, after which the media was replaced with fresh media; the cells were incubated with MTT reagents and the absorbance read at 650 and 575 nm. The 650 reading was subtracted from the 575 reading to correct for background absorbance."}, "MDA-MB-468 cells": {"system": "MDA-MB-468 cells", "assay": "Real-time RT-PCR of specific mRNAs in MDA-MB-468 cells", "assay_type": "cell-based, human", "conditions": "for increase in expression of RNA of CDKN1A: 4 μg/ml, MDA-MB-468", "method": "(§1) Real-time RT-PCR analysis was performed on 2 technical replicates of at least 2 biological sample replicates.\n(§2) Real-time quantitative RT-PCR methods were used to determine the nature of the RNA induced by treatment with CA, using the Real Time PCR machine Stratagene MX3005P QPCR System.\n(§3) Real-time RT-PCR analysis was performed to examine the mode of action of CA. In MDA-MB-468 cells, CA at 4 μg/ml induced an increase in expression of RNA of the tumor suppressor gene CDKN1A; for MDA-MB-468 cells (6 h: 1.51-logfold; 24 h: 1.61-logfold) (FIG. 3A); for SUM149 cells (6 h: 2.7-logfold). CA had little effect on the expression of the tumor suppressor gene BRCA1."}, "[2]": {"system": "MDA-MB-468 triple negative breast cancer cells", "assay": "MTT cell proliferation assay on MDA-MB-468 cells", "assay_type": "cell-based, human", "method": "MDA-MB-453 (ER negative, Her2 overexpressing), MDA-MB-468 (triple negative) and MCF7 (ER positive, Her2 low) cells, HT29 (p53 positive human colon cancer cells) (ATCC, Manassas, Va.) were grown in Dulbecco's Modified Eagle's medium (DMEM) (Gibco BRL Life Technologies, Inc., Rockville, Md.) containing 10% (v/v) fetal bovine serum (FBS) (Gibco BRL) at 37° C., 5% C02. SUM 149 (Her2 overexpressing, ER low) (the gift of Dr. R. Parsons, Columbia University Medical Center, New York, N.Y.) were cultivated in Ham's F-12 medium with 10% FBS. MCF7 and MCF7/Her2-18 (MCF7 cells transfected with a full length Her2 cDNA coding region, 45-fold increase Her2) were the kind gift of Dr. Dennis Slamon (Los Angeles, Calif.). These cells were maintained in RPMI supplemented with 10% FBS plus glutamine (1%) and PSF (1%) (Gibco, Rockville Md.).\nMTT assay: the MTT {3-(4,5-dimethyl-2-thiazol)-2,5-diphenyl-2H tetrazolilum bromide} (Dojindo; Tokyo, Japan) cell proliferation assay system (Roche Diagnostic, Mannheim, Germany) was used to determine the sensitivity of the various cell lines to agents. Cells were seeded at 1×10^4 cells/well in 96-well plates and allowed to attach for 24 h. The medium was replaced with fresh medium containing DMSO or compound. The cells were treated for 96 or 120 h, after which they were incubated with MTT reagents and the absorbance read at 650 and 575 nm. For cell growth assays, the data are expressed as mean+/−standard deviation. Control and treated cells were compared using the student's t-test (p<0.05).\nTo determine the Combination Index (CI), cells were treated with all combinations of 4 or 5 concentrations of each of the agents tested and a solvent control. The results of the MTT assay were analyzed for possible synergistic effects using the median effect principle. Variable ratios of drugs were employees and mutually exclusive equations were assumed."}, "SUM149 cells": {"system": "SUM149 cells", "assay": "Real-time RT-PCR of specific mRNAs in SUM149 cells", "assay_type": "cell-based", "conditions": "4 μg/ml, 6 h", "method": "as §1, §2, §3"}, "[3]": {"system": "MDA-MB-453 human breast cancer cells", "assay": "Cell cycle analysis by DNA flow cytometry", "assay_type": "cell-based", "conditions": "48 h", "method": "For cell cycle analysis the cells were plated (3×105) onto 6 cm dishes and allowed to attach for 24 h. Then the medium was replaced with DMEM containing 10% FBS and DMSO or agents. After 48 h, the cells were analyzed by DNA flow cytometry.\nTo examine the effects of rosemary on the cell cycle, MDA-MB-453 human breast cancer cells were treated with rosemary extract enriched for CA (50%) at 40 or 80 μg/ml and purified CA at 10, 20 or 40 μg/ml for 48 h. The cells were then stained with propidium iodide and the stained cells were analyzed by DNA flow cytometry (Table 1).\nMDA-MB-453 cells were treated with 0, 10, 20, or 40 μg/ml of carnosic acid or 40, 80 μg/ml of rosemary extract (carnosic acid: 50%), and analyzed at 48 hr by DNA flow cytometry. The values indicate the % of cells in the cell cycle phases."}}, "note": "pIC50: −log10 of the molar value. Several values for one entry are separate records, joined by “and”; a condition that tells them apart may be missing. Identical values can stand only once. Like-named read-outs stand apart in the source and are kept apart here.", "data": [{"smiles": "CC(C)c1cc2c(c(O)c1O)[C@@]1(C(=O)O)CCCC(C)(C)[C@@H]1CC2", "note": "[carnosic acid]", "values": [{"measurement": "% cell proliferation", "setting": "[1]; 5 μg/ml", "result": 105.3, "unit": "%"}, {"measurement": "% cell proliferation", "setting": "[1]; 10 μg/ml", "result": 56.7, "unit": "%"}, {"measurement": "% cell proliferation", "setting": "[1]; 15 μg/ml", "result": 8.1, "unit": "%"}, {"measurement": "% cell proliferation", "setting": "[1]; 20 μg/ml", "result": 6.7, "unit": "%"}, {"measurement": "IC50", "setting": "[1]; Homo sapiens, SK-OV-3, MTT, read-out: IC50, concentration that caused 50% inhibition of cell growth", "result": "~10.5 µg/mL and ~31.6 µM"}, {"measurement": "increase in expression of RNA of CDKN1A", "setting": "MDA-MB-468 cells; 6 h", "result": 1.51, "unit": "logfold"}, {"measurement": "increase in expression of RNA of CDKN1A", "setting": "MDA-MB-468 cells; 24 h", "result": 1.61, "unit": "logfold"}, {"measurement": "effect on expression of the vitamin D receptor", "setting": "MDA-MB-468 cells; 6 h, real-time RT-PCR", "result": "slight increase in expression"}, {"measurement": "effect on expression of BRCA1", "setting": "MDA-MB-468 cells; real-time RT-PCR", "result": "little effect"}, {"measurement": "effect on expression of CYP24A1", "setting": "MDA-MB-468 cells; real-time RT-PCR", "result": "significant increase in expression"}, {"measurement": "IC50", "setting": "[2]; Homo sapiens, MDA-MB-468, MDA-MB-468 cells, MTT assay, read-out: IC50 growth inhibition", "result": "2 µg/mL and 6 µM"}, {"measurement": "viability at 6 µM", "setting": "[2]; Homo sapiens, MDA-MB-468, CA 2 μg/ml (6 μM) alone, read-out: percent viable cells", "result": 89.4, "unit": "%"}, {"measurement": "IC50 growth inhibition", "setting": "[2]; MDA-MB-468 cells, MTT assay, listed as CA", "result": 3, "unit": "µg/mL"}, {"measurement": "pIC50", "setting": "[2]; MDA-MB-468 cells, MTT assay, listed as CA, read-out: IC50 growth inhibition", "result": 5.05}, {"measurement": "increase in expression of RNA of CDKN1A", "setting": "SUM149 cells", "result": 2.7, "unit": "logfold"}, {"measurement": "% of Cells G1", "setting": "[3]; 10 ug/ml", "result": 51.2, "unit": "%"}, {"measurement": "% of Cells G2", "setting": "[3]; 10 ug/ml", "result": 11.8, "unit": "%"}, {"measurement": "% of Cells Sub G1", "setting": "[3]; 10 ug/ml", "result": 1.5, "unit": "%"}, {"measurement": "% of Cells S", "setting": "[3]; 10 ug/ul", "result": 31.2, "unit": "%"}, {"measurement": "% of Cells G1", "setting": "[3]; 20 ug/ml", "result": 71.9, "unit": "%"}, {"measurement": "% of Cells G2", "setting": "[3]; 20 ug/ml", "result": 9.1, "unit": "%"}, {"measurement": "% of Cells Sub G1", "setting": "[3]; 20 ug/ml", "result": 1.7, "unit": "%"}, {"measurement": "% of Cells S", "setting": "[3]; 20 ug/ul", "result": 15.3, "unit": "%"}, {"measurement": "% of Cells G1", "setting": "[3]; 40 ug/ml", "result": 50.8, "unit": "%"}, {"measurement": "% of Cells G2", "setting": "[3]; 40 ug/ml", "result": 13.9, "unit": "%"}, {"measurement": "% of Cells Sub G1", "setting": "[3]; 40 ug/ml", "result": 1.6, "unit": "%"}, {"measurement": "% of Cells S", "setting": "[3]; 40 ug/ul", "result": 28.9, "unit": "%"}]}]}
